Test results taken from paper PMC9500858 (International Journal of Molecular Sciences, 2022).
Entries after “also recorded” stand apart in the source; their conditions may differ.

Assays:
HCl (1 M) = settings: 80 °C for 12 h and 37°C for 24 h, up to 96 h
[1] = 30% (v/v) hydrogen peroxide (H2O2); settings: 37 °C for 24 h and 80 °C for 12 h, up to 24 h
[2] = 1 M HCl (acid hydrolysis); settings: 37 °C (24 h) and 80 °C (12 h), up to 96 h (time course, Figure 2C); 24 h at 37 °C; 12 h at 80 °C
[3] = 1 M NaOH (base hydrolysis); settings: 37 °C (24 h) and 80 °C (12 h), up to 96 h (time course, Figure 2D); 24 h at 37 °C; 12 h at 80 °C

Row | cleaved bond (HCl (1 M)) | cleaved bond [1] | Substance | fragment found [2] | fragment found [3]
1 | Phe-Ile9; also recorded: D-Lys2-Phe | Dmt1-D-Lys2 | HELM PEPTIDE1{[Cc1cc(O)cc(C)c1C[C@H](N)C(=O)[*:2]].[dK].F.F.K.K.P.F.I.L}$$$$V2.0 (N-terminus assumed; SMILES CC[C@H](C)[C@H](NC(=O)[C@H](Cc1ccccc1)NC(=O)[C@@H]1CCCN1C(=O)[C@H](CCCCN)NC(=O)[C@H](CCCCN)NC(=O)[C@H](Cc1ccccc1)NC(=O)[C@H](Cc1ccccc1)NC(=O)[C@@H](CCCCN)NC(=O)[C@@H](N)Cc1c(C)cc(O)cc1C)C(=O)N[C@@H](CC(C)C)C(=O)O) | – | –
2 | – | – | HELM PEPTIDE1{[Cc1cc(O)cc(C)c1C[C@H](N)C(=O)[*:2]].[dK].F.F.K.K.P.F.[CC(C)(C)[C@H](N[*:1])C(=O)[*:2]].L}$$$$V2.0 (N-terminus assumed; SMILES Cc1cc(O)cc(C)c1C[C@H](N)C(=O)N[C@H](CCCCN)C(=O)N[C@@H](Cc1ccccc1)C(=O)N[C@@H](Cc1ccccc1)C(=O)N[C@@H](CCCCN)C(=O)N[C@@H](CCCCN)C(=O)N1CCC[C@H]1C(=O)N[C@@H](Cc1ccccc1)C(=O)N[C@H](C(=O)N[C@@H](CC(C)C)C(=O)O)C(C)(C)C) | compound H—Phe-Lys-Lys-Pro-Phe-Tle-Leu; also recorded: compound K—Pro-Phe-Tle | compound H—Phe-Lys-Lys-Pro-Phe-Tle-Leu; also recorded: compound K—Pro-Phe-Tle; also recorded: compound J (Pro-Phe-Tle-Leu)
